Assay results taken from the Kinase Knowledgebase extract (Sharma et al. 2016).

molecular target: CDK2 (human) (UniProt P24941); test: Enzyme Assay

| Structure (SMILES) | IC50 [nM] |
| --- | --- |
| CC(C)c1cnn2c(NCc3cccc4cccnc34)nc(O[C@@H]3CCCNC3)nc12 | 50 to 500 |
| CC(C)c1cnn2c(NCc3ccccc3-n3cccn3)nc(NC3CCNC3)nc12 (stereo unspecified) | 50 to 500 |
| CC(C)c1cnn2c(NCc3ccccc3-n3cncn3)nc([S+]([O-])C3CCNCC3)nc12 (stereo unspecified) | 50 to 500 |
| CC(C)c1cnn2c(NCc3cccc(F)c3-n3cccn3)nc(O[C@@H]3CCCNC3)nc12 | ≤ 50 |
| CC(C)c1cnn2c(NCc3ccccc3-n3cncn3)nc(N[C@@H]3CCCNC3)nc12 | ≤ 50 |
| CC(C)c1cnn2c(NCc3ccccc3Br)nc(O[C@@H]3CCCNC3)nc12 | 50 to 500 |
| CC(C)c1cnn2c(NCc3ccccc3-n3cc(Cl)cn3)nc(O[C@@H]3CCCNC3)nc12 | 50 to 500 |
| CNC1CCN(c2nc(NCc3ccccc3-n3cccn3)n3ncc(C(C)C)c3n2)CC1 | 50 to 500 |
| CC(C)c1cnn2c(NCc3cc(F)ccc3-n3cccn3)nc(O[C@@H]3CCCNC3)nc12 | ≤ 50 |
| CC(C)c1cnn2c(NCc3ccccc3-n3ccnc3)nc(O[C@@H]3CCNC3)nc12 | 50 to 500 |
| CC(C)c1cnn2c(NCc3ccccc3Cl)nc(OC3CCN(C)CC3)nc12 | 50 to 500 |
| CC(C)c1cnn2c(NCc3ccccc3-n3cncn3)nc(O[C@@H]3CCNC3)nc12 | ≤ 50 |
| CC(C)c1cnn2c(NCc3ccccc3-n3ccnc3)nc(O[C@@H]3CCCNC3)nc12 | 50 to 500 |
| CNS(=O)(=O)c1ccccc1CNc1nc(O[C@@H]2CCCNC2)nc2c(C(C)C)cnn12 | 50 to 500 |
| CC(C)c1cnn2c(NCc3ccccc3-n3cncn3)nc(OC3CCNCC3)nc12 | 50 to 500 |
| CC(C)c1cnn2c(NCc3cccc4ccncc34)nc(O[C@@H]3CCCNC3)nc12 | 50 to 500 |
| CC(C)c1cnn2c(NCc3ccccc3-c3cccs3)nc(OC3CCN(C)CC3)nc12 | 50 to 500 |
| CC(C)c1cnn2c(NCc3cccc(Cl)c3Cl)nc(O[C@@H]3CCCNC3)nc12 | 50 to 500 |
| CC(C)c1cnn2c(NCc3ccccc3-c3ccccn3)nc(O[C@@H]3CCCNC3)nc12 | 50 to 500 |

| Structure (SMILES) | IC50 [nM] |
| --- | --- |
| CC(C)c1cnn2c(NCc3ccccc3S(=O)(=O)N3CCCC3)nc(O[C@@H]3CCCNC3)nc12 | 50 to 500 |
| CC(C)c1cnn2c(NCc3ccccc3-c3nnn(C)n3)nc(O[C@@H]3CCCNC3)nc12 | ≤ 50 |
| CC(C)c1cnn2c(NCc3ccccc3-n3cccn3)nc(OC3C=CCNC3)nc12 (stereo unspecified) | 50 to 500 |
| CC(C)c1cnn2c(NCc3ccccc3-c3cccs3)nc(O[C@@H]3CCCNC3)nc12 | ≤ 50 |
| CC(C)c1cnn2c(NCc3ccccc3S(=O)(=O)N3CCN(C)CC3)nc(O[C@@H]3CCCNC3)nc12 | 50 to 500 |
| CC(C)c1cnn2c(NCc3c(F)cccc3-n3cccn3)nc(O[C@@H]3CCCNC3)nc12 | 50 to 500 |
| CC(C)c1cnn2c(NCc3ccccc3-n3cccn3)nc(O[C@@H]3CCCNC3)nc12 | ≤ 50 |
| CC(C)c1cnn2c(NCc3ccccc3-n3cccn3)nc(S[C@@H]3CCCNC3)nc12 | 50 to 500 |
| CC(C)c1cnn2c(NCc3ccccc3-n3cccn3)nc(N3CCC(N(C)C)CC3)nc12 | 50 to 500 |
| CC(C)c1cnn2c(NCc3ccccc3OS(=O)C(C)(C)C)nc(O[C@@H]3CCCNC3)nc12 (stereo partly specified) | 50 to 500 |
| CNC(=O)c1ccccc1CNc1nc(O[C@@H]2CCCNC2)nc2c(C(C)C)cnn12 | 50 to 500 |
| COc1ccccc1CNc1nc(OC2CCN(C)CC2)nc2c(C(C)C)cnn12 | 50 to 500 |
| CC(C)c1cnn2c(NCc3ccccc3-n3cccn3)nc(NC3CCCNC3)nc12 (stereo unspecified) | 50 to 500 |
| CC(C)c1cnn2c(NCc3ccccc3-c3cccs3)nc(O[C@@H]3CCNC3)nc12 | 50 to 500 |
| CC(C)c1cnn2c(NCc3cccc4c3cnn4C)nc(O[C@@H]3CCCNC3)nc12 | ≤ 50 |
| CC(C)c1cnn2c(NCc3ccccc3-c3cccs3)nc(OC3CCNCC3)nc12 | 50 to 500 |
| CC(C)c1cnn2c(NCc3ccccc3-n3cccn3)nc(O[C@@H]3CCNC3)nc12 | ≤ 50 |
| CC(C)c1cnn2c(NCc3ccccc3C(N)=O)nc(O[C@@H]3CCCNC3)nc12 | 50 to 500 |
| CC(C)c1cnn2c(NCc3ccccc3OC(F)F)nc(OC3CCN(C)CC3)nc12 | 50 to 500 |

| Structure (SMILES) | IC50 [nM] |
| --- | --- |
| CSc1ccccc1CNc1nc(O[C@@H]2CCCNC2)nc2c(C(C)C)cnn12 | 50 to 500 |
| CC(C)c1cnn2c(NCc3cccc4cc[n+]([O-])cc34)nc(O[C@@H]3CCCNC3)nc12 | 50 to 500 |
| CC(C)c1cnn2c(NCc3ccccc3-n3cccn3)nc(OC3CCNCC3)nc12 | 50 to 500 |
| CC(C)c1cnn2c(NCc3ccccc3-c3nnnn3C)nc(O[C@@H]3CCCNC3)nc12 | 50 to 500 |
| CC(C)c1cnn2c(NCc3cccc4[nH]ncc34)nc(O[C@@H]3CCCNC3)nc12 | ≤ 50 |
| CC(C)c1cnn2c(NCc3ccccc3-n3cccn3)nc(OC3C[C@H]4CNC[C@@H]34)nc12 (stereo partly specified) | 50 to 500 |
| CC(C)c1cnn2c(NCc3ccccc3S(=O)(=O)N(C)C)nc(O[C@@H]3CCCNC3)nc12 | 50 to 500 |
| CC(C)c1cnn2c(NCc3ccccc3S(C)(=O)=O)nc(O[C@@H]3CCCNC3)nc12 | 50 to 500 |
| CC(C)c1cnn2c(NCc3ccccc3[S+](C)[O-])nc(O[C@@H]3CCCNC3)nc12 (stereo partly specified) | 50 to 500 |
| CC(C)c1cnn2c(NCc3ccccc3C(F)(F)F)nc(OC3CCN(C)CC3)nc12 | ≤ 50 |
| CC(C)Oc1ccccc1CNc1nc(O[C@@H]2CCCNC2)nc2c(C(C)C)cnn12 | 50 to 500 |
| CC(C)c1cnn2c(NCc3ccccc3N3CCCC3=O)nc(O[C@@H]3CCCNC3)nc12 | 50 to 500 |
| CC(C)c1cnn2c(NCc3cccc4c3OCCCO4)nc(O[C@@H]3CCCNC3)nc12 | 50 to 500 |
| CC(C)c1cnn2c(NCc3ccc(F)cc3-n3cccn3)nc(O[C@@H]3CCCNC3)nc12 | ≤ 50 |
| CC(C)c1cnn2c(NCc3ccccc3OS(C)(=O)=O)nc(O[C@@H]3CCCNC3)nc12 | 50 to 500 |
| CC(C)c1cnn2c(NCc3ccccc3-c3cccs3)nc([S+]([O-])C3CCNCC3)nc12 (stereo unspecified) | 50 to 500 |
| CC(C)c1cnn2c(NCc3ccccc3-n3cccn3)nc([S+]([O-])C3CCNCC3)nc12 (stereo unspecified) | 50 to 500 |
| CC(C)c1cnn2c(NCc3ccccc3-n3cncn3)nc(OC3CCN(C)CC3)nc12 | 50 to 500 |
